Publication PMC12706794, “Identification and Characterization of a Small-Molecule Inhibitor of the Pseudomonas aeruginosa SOS Response” (ACS Infectious Diseases, 2025)
≈ marks a conversion by molar mass, not a printed value.

B1: SOS-box dsDNA (AT-repeat) (dsDNA)
DNA 1: GATGCCTGCGGATACTGTATATATATACAGTATCAATTCTGGCT
DNA 2: AGCCAGAATTGATACTGTATATATATACAGTATCCGCAGGCATC

Assays:
[1] = target: T1, RecAPa*-induced FlAsH-LexAPa CTD autoproteolysis (Pseudomonas aeruginosa, UniProt P37452); assay: FP-based RecA*-induced LexA autoproteolysis in vitro assay; assay type: biochemical, P. aeruginosa; details: highest concentration tested, range 0.2 to 2 mM
T1 construct: 6His-SUMO (N, cleaved yes); made in house; host or cells: E. coli BL21(DE3)
Description: A custom-made library of 318 small molecules (MW < 1000 Da) has been screened at two different concentrations (25 μg/mL and 125 μg/mL, corresponding to molar concentrations of 30–170 μM and 150–850 μM, respectively) on the P. aeruginosa SOS system by a previously validated fluorescence polμarization (FP)-based RecA*-induced LexA autoproteolysis in vitro assay. , 1 μM FlAsH-LexAPa ^CTD and 1 μM preactivated RecA*Pa were incubated with the screened chemical fragments for 1 h at 37 °C before measuring FP.
Then, the FP-based LexA autoproteolysis assay was repeated on the two hits, monitoring the full kinetics of LexA cleavage over a 1 h incubation and exploring a wide range of drug concentrations (10–1000 μM).
A custom-made library of 318 chemical fragments (25 mg/mL stock solutions in DMSO), provided by P. Kavaliauskas (Weill Cornell Medicine of Cornell University) was screened in vitro for their ability to inhibit RecAPa*-mediated LexAPa autoproteolysis by a Fluorescence Polarization (FP)-based assay. , Twenty microliter reactions were set up in Nunc 384-Well Black microplates, and final reaction mixtures included 1 μM FlAsH-LexAPa ^CTD, the compounds (5% v/v DMSO in all the samples, including the controls devoid of compounds), and 1 μM RecAPa* (FP Buffer in the negative control; 30 mM Hepes, 150 mM NaCl, pH 7.1). The initial screening was performed with two dilutions of the compounds (25 and 125 μg/mL). The FP signal was measured after a 1 h incubation at 37 °C by an EnVision MultiMode Plate Reader (PerkinElmer) equipped with opportune FP filters and mirrors. To obtain LexAPa ^CTD autoproteolysis percent inhibition, FP data were scaled from 0% (corresponding to the positive control sample) to 100% (negative control).
Compounds displaying an inhibition of at least 50% at the highest concentration and a rather consistent increase in activity at the two tested concentrations were selected as the hits.
The same FP assay was carried out on serial dilutions of selected compounds to determine the dose–response relationship. To evaluate the effect of a reducing environment, 2 mM Tris(2-carboxyethyl)-phosphine (TCEP) was added to the reaction mixtures. The FP signal of FlAsH-LexAPa ^CTD alone was detected for 5 min before adding the compounds. The system was monitored for an additional 5 min in the presence of the tested compounds in order to observe potential aggregation events. Then, RecAPa* was added, and the autoproteolysis reaction was followed for 1 h at 37 °C (1 reading per minute). FlAsH-LexAPa ^CTD autoproteolysis percent inhibition was calculated as mentioned above and plotted as a function of compound concentration. Experimental data fitting was performed with GraphPad Prism 8 to obtain the absolute IC50.

[2] = tested on: P. aeruginosa PAO1; assay: Antimicrobial susceptibility testing (MIC); assay type: cell-based, P. aeruginosa PAO1 (ATCC 15692); details: for MIC: Pseudomonas aeruginosa, PAO1
Description: The MIC of compound A12 and antibiotics was determined by using the Clinical Laboratory Standard Institute (CLSI) recommendations with minor modifications. […] Microplates were incubated in a humidified incubator for 18 h at 37 °C, and the bacterial growth was quantified by OD600. According to CLSI, MICs are defined as the lowest concentrations of antimicrobial agents that prevent visible growth.

[3] = tested on: P. aeruginosa PAO1 on THP-1-derived macrophages; assay: P. aeruginosa PAO1 colonization of THP-1-derived macrophages; assay type: cell-based; details: single agent: ciprofloxacin 0.5 μg/mL or A12 100 μg/mL; 3 h infection
Description: THP-1-derived macrophages were generated from THP-1 monocytes as previously described, with minor modifications. , Briefly, THP-1 monocytes were washed three times with antibiotic-free RPMI 1640 medium and resuspended in complete antibiotic-free RPMI 1640 supplemented with 300 nM phorbol 12-myristate 13-acetate (PMA). Cells were incubated for 24 h, followed by a 48 h rest period in PMA-free RPMI 1640 prior to use in subsequent experiments. […] PMA-differentiated THP-1-derived macrophages were similarly trypsinized and seeded into 24-well plates at 5 × 10^5 cells/well in complete, antibiotic-free RPMI supplemented with FBS. Cells were incubated overnight to allow for attachment. Immediately prior to infection, the medium was aspirated, and cells were washed three times with Dulbecco’s phosphate-buffered saline. […] Infection was synchronized by centrifuging plates at 1000g for 1 min. […] Following the infection period, the medium was aspirated, and cells were washed three times with DPBS to remove unattached bacteria and residual test compounds. […] In both cases, the resulting lysates were serially diluted in DPBS and plated on tryptic soy agar plates. Plates were incubated at 37 °C for 24 h, after which colonies were enumerated. Bacterial burden was expressed as the CFU per well.

[4] = target: LexAPa S125A (uncleavable mutant) (Pseudomonas aeruginosa ATCC 27853, UniProt P37452 1-204, S125A); assay: EMSA; no A12, 10% DMSO; 8 uM LexA, 1 uM DNA; details: protein: recombinant; chain copies: 2; blunt
[5] = A12 (32 μg/mL) (+), in combination

Molecule | MIC on P. aeruginosa PAO1 [2, 5] [µg/mL] | MIC ([2]; A12 (32 μg/mL) (−)) [µg/mL] | also measured
O=C(O)CCNc1ccccc1CCc1ccccc1NCCC(=O)O [BG-191, 3,3′-((ethane-1,2-diylbis(2,1-phenylene))bis(azanediyl))dipropionic acid] | – | – | LexAPa autocleavage percent inhibition of A12 derivatives [1]: 20%
CC(CC(=O)O)Nc1ccccc1CCc1ccccc1NC(C)CC(=O)O (stereo not shown) [BG-194, 3,3′-((ethane-1,2-diylbis(2,1-phenylene))bis(azanediyl))dibutyric acid] | – | – | LexAPa autocleavage percent inhibition of A12 derivatives [1]: did not display any inhibitory activity
CO/N=C(\C(=O)N[C@@H]1C(=O)N2C(C(=O)O)=C(CSc3nc(=O)c(=O)[nH]n3C)CS[C@H]12)c1csc(N)n1 [Ceftriaxone] | 8 | 8 (≈ 14.4 µM) | –
O=C(O)c1cn(C2CC2)c2cc(N3CCNCC3)c(F)cc2c1=O [Ciprofloxacin, reference compound] | – | – | Total (adherent + intracellular) burden of PAO1 on THP-1-derived macrophages [3]: diminished
C[C@H]1COc2c(N3CCN(C)CC3)c(F)cc3c(=O)c(C(=O)O)cn1c23 [Levofloxacin] | 0.125 | 0.0625 (≈ 0.173 µM) | –
COc1c(N2C[C@@H]3CCCN[C@@H]3C2)c(F)cc2c(=O)c(C(=O)O)cn(C3CC3)c12 [Moxifloxacin] | – | 0.0312 (≈ 0.0777 µM) | –
CN(C)[C@@H]1C(O)=C(C(N)=O)C(=O)[C@@]2(O)C(O)=C3C(=O)c4c(O)cccc4[C@@](C)(O)[C@H]3C[C@@H]12 [Tetracycline] | 4 | 4 (≈ 9 µM) | –
Gentamycin | 2 | – | MIC on P. aeruginosa PAO1 ([2]; A12 (32 μg/mL) (−)): 2 µg/mL
B1 | – | – | binding result [4]: binds
